{"source": "patent US4317914A", "about": "“Oxazolines” (Hoffmann-La Roche Inc., priority 1979, dated 1982)", "key": {"[1]": {"tested_on": "blood glucose", "assay": "Activity on blood glucose after repeated oral administration, obese-hyperglycemic mouse (5), quantitatively controlled feed supply", "type": "in vivo", "conditions": "11 administrations", "method": "(§1) The preparations containing the test compound were administered to rats and mice as a suspension in 5% gun arabic (10 ml/kg) through a stomach probe. Dogs received the preparations orally in gelatin capsules. The blank values were ascertained from animals which received only the vehicle or a blank capsule. The medication was administered daily at 9:00 a.m. and 3:00 p.m.\n(§2) The plasma glucose (Tables 1 and 3) was determined according to the hexokinase method. The plasma was obtained from heparinized blood after decapitating the rats (1) or by puncturing the vena saphena (2), or there was used a filtrate, made protein-free with perchloric acid, of blood removed from the tip of the tail (3), (4), (5). The glucose in the urine was determined directly. In the case of (1), (2) and (4), the feed was withdrawn with the first of five medications.\n(§3) In the case of (3), female rats received 70 mg/kg of streptozotocin subcutaneously 2 weeks before the test. In the case of (3) and (5), quantitatively controlled feed supply existed."}, "[2]": {"tested_on": "plasma glucose", "assay": "Activity on plasma glucose after repeated oral administration, fasted dog (2)", "type": "in vivo", "conditions": "5 administrations", "method": "as §1, §2"}, "[3]": {"tested_on": "plasma glucose", "assay": "Activity on plasma glucose after repeated oral administration, fasted rat (1)", "type": "in vivo", "conditions": "for Plasma glucose 3 hours after the last of 5 oral medications: 5 × p.o., *p < 0.05, ***p < 0.001; for Plasma glucose 3 hours after the last medication: ***p < 0.001", "method": "as §1, §2"}, "[4]": {"tested_on": "blood glucose", "assay": "Activity on blood glucose after repeated oral administration, diabetic rat (3), streptozotocin", "type": "in vivo", "conditions": "132 mg/kg p.o., 7 administrations", "method": "as §1, §2, §3"}, "[5]": {"tested_on": "blood glucose", "assay": "Activity on blood glucose after repeated oral administration, obese-hyperglycemic mouse (4), feed withdrawn", "type": "in vivo", "conditions": "294 mg/kg p.o., 5 administrations", "method": "as §1, §2"}, "[6]": {"assay": "Toxicity, 10 day test in mice", "conditions": "mouse, in vivo"}, "[7]": {"assay": "Toxicity, 10 day test in rats", "conditions": "rat, in vivo"}, "[8]": {"conditions": "88 mg/kg p.o., 5 administrations"}}}
{"smiles": "CN(C)c1ccc(C2OC(C)(C)N=C2c2ccccc2)cc1", "note": "(centres unmarked) [A, 5-[p-(dimethylamino)phenyl]-2,2-dimethyl-4-phenyl-3-oxazoline]", "values": [{"measurement": "Blood glucose 0 hours after the last medication", "setting": "[1]; 44 mg/kg p.o.", "value": "83 % of blank values"}, {"measurement": "Blood glucose 1 hour after the last medication", "setting": "[1]; 44 mg/kg p.o.", "value": "77 % of blank values"}, {"measurement": "Blood glucose 3 hours after the last medication", "setting": "[1]; 44 mg/kg p.o.", "value": "84 % of blank values"}, {"measurement": "Blood glucose 0 hours after the last medication", "setting": "[1]; 132 mg/kg p.o., **p < 0.01", "value": "66 % of blank values"}, {"measurement": "Blood glucose 1 hour after the last medication", "setting": "[1]; 132 mg/kg p.o., *p < 0.05", "value": "61 % of blank values"}, {"measurement": "Blood glucose 3 hours after the last medication", "setting": "[1]; 132 mg/kg p.o., ***p < 0.001", "value": "55 % of blank values"}, {"measurement": "Plasma glucose 0 hours after the last medication", "setting": "[2]; 29 mg/kg p.o., **p < 0.01", "value": "82 % of blank values"}, {"measurement": "Plasma glucose 1 hour after the last medication", "setting": "[2]; 29 mg/kg p.o., *p < 0.05", "value": "75 % of blank values"}, {"measurement": "Plasma glucose 3 hours after the last medication", "setting": "[2]; 29 mg/kg p.o., ***p < 0.001", "value": "77 % of blank values"}, {"measurement": "Plasma glucose 6 hours after the last medication", "setting": "[2]; 29 mg/kg p.o., **p < 0.01", "value": "74 % of blank values"}, {"measurement": "Plasma glucose 24 hours after the last medication", "setting": "[2]; 29 mg/kg p.o.", "value": "84 % of blank values"}, {"measurement": "Plasma glucose 0 hours after the last medication", "setting": "[2]; 88 mg/kg p.o., **p < 0.01", "value": "77 % of blank values"}, {"measurement": "Plasma glucose 1 hour after the last medication", "setting": "[2]; 88 mg/kg p.o.", "value": "75 % of blank values"}, {"measurement": "Plasma glucose 3 hours after the last medication", "setting": "[2]; 88 mg/kg p.o., *p < 0.05", "value": "78 % of blank values"}, {"measurement": "Plasma glucose 6 hours after the last medication", "setting": "[2]; 88 mg/kg p.o., *p < 0.05", "value": "76 % of blank values"}, {"measurement": "Plasma glucose 24 hours after the last medication", "setting": "[2]; 88 mg/kg p.o., *p < 0.05", "value": "74 % of blank values"}, {"measurement": "Plasma glucose 3 hours after the last of 5 oral medications", "setting": "[3]; 300 μmol/kg", "value": "78 % of the blank values"}, {"measurement": "Plasma glucose 3 hours after the last of 5 oral medications", "setting": "[3]; 1000 μmol/kg", "value": "58 % of the blank values"}, {"measurement": "Plasma glucose 0 hours after the last medication", "setting": "[3]; 88 mg/kg p.o., 5 administrations, 0 h", "value": "76 % of blank values"}, {"measurement": "Plasma glucose 1 hour after the last medication", "setting": "[3]; [8]", "value": "76 % of blank values"}, {"measurement": "Plasma glucose 3 hours after the last medication", "setting": "[3]; [8]", "value": "78 % of blank values"}, {"measurement": "Plasma glucose 1 hour after the last medication", "setting": "[3]; 294 mg/kg p.o., 5 administrations, **p < 0.01", "value": "57 % of blank values"}, {"measurement": "Plasma glucose 3 hours after the last medication", "setting": "[3]; 294 mg/kg p.o., 5 administrations", "value": "58 % of blank values"}, {"measurement": "Blood glucose 0 hours after the last medication", "setting": "[4]; 0 h", "value": "101 % of blank values"}, {"measurement": "Blood glucose 1 hour after the last medication", "setting": "[4]; 1 h", "value": "101 % of blank values"}, {"measurement": "Blood glucose 3 hours after the last medication", "setting": "[4]; 3 h", "value": "90 % of blank values"}, {"measurement": "Blood glucose 6 hours after the last medication", "setting": "[4]; 6 h, *p < 0.05", "value": "86 % of blank values"}, {"measurement": "Blood glucose 0 hours after the last medication", "setting": "[5]; 0 h, *p < 0.05", "value": "63 % of blank values"}, {"measurement": "Blood glucose 1 hour after the last medication", "setting": "[5]; 1 h", "value": "74 % of blank values"}, {"measurement": "Blood glucose 3 hours after the last medication", "setting": "[5]; 3 h", "value": "71 % of blank values"}, {"measurement": "Blood glucose 6 hours after the last medication", "setting": "[5]; 6 h, ***p < 0.001", "value": "45 % of blank values"}, {"measurement": "LD50 at 240 h", "setting": "[6]", "value": 220, "unit": "mg/kg"}, {"measurement": "LD50 at 240 h", "setting": "[7]", "value": 970, "unit": "mg/kg"}]}
{"smiles": "CCN(CC)c1ccc(C2OC(C)(C)N=C2c2ccccc2)cc1", "note": "(centres unmarked) [B, 5-[p-(diethylamino)-phenyl]-2,2-dimethyl-4-phenyl-3-oxazoline]", "values": [{"measurement": "Plasma glucose 3 hours after the last of 5 oral medications", "setting": "[3]; 300 μmol/kg", "value": "91 % of the blank values"}, {"measurement": "Plasma glucose 3 hours after the last of 5 oral medications", "setting": "[3]; 1000 μmol/kg", "value": "77 % of the blank values"}]}
{"smiles": "CN(C=O)c1ccc(C2OC(C)(C)N=C2c2ccccc2)cc1", "note": "(centres unmarked) [C, 4'-(2,2-dimethyl-4-phenyl-3-oxazolin-5-yl)-N-methylformanilide]", "values": [{"measurement": "Plasma glucose 3 hours after the last of 5 oral medications", "setting": "[3]; 300 μmol/kg", "value": "87 % of the blank values"}]}
{"smiles": "CNc1ccc(C2OC(C)(C)N=C2c2ccccc2)cc1", "note": "(centres unmarked) [D, 5-[p-(methylamino)phenyl]-2,2-dimethyl-4-phenyl-3-oxazoline]", "values": [{"measurement": "Plasma glucose 3 hours after the last of 5 oral medications", "setting": "[3]; 300 μmol/kg", "value": "86 % of the blank values"}, {"measurement": "Plasma glucose 3 hours after the last of 5 oral medications", "setting": "[3]; 1000 μmol/kg", "value": "81 % of the blank values"}]}
